Reference: patent publication US7250442B2, “Dihydroindol-2-one derivatives as steroid hormone nuclear receptor modulators” (Eli Lilly and Company, priority 2003, dated 2007)

Biological target: T1, human MR (Homo sapiens, UniProt P08235)
T1 construct: The full length human MR gene is cloned from a human kidney or human brain cDNA library; made in house; host or cells: Sf9 insect cells (baculovirus, pAcHLT transfer vector)
T1 sequence (P08235 1-984): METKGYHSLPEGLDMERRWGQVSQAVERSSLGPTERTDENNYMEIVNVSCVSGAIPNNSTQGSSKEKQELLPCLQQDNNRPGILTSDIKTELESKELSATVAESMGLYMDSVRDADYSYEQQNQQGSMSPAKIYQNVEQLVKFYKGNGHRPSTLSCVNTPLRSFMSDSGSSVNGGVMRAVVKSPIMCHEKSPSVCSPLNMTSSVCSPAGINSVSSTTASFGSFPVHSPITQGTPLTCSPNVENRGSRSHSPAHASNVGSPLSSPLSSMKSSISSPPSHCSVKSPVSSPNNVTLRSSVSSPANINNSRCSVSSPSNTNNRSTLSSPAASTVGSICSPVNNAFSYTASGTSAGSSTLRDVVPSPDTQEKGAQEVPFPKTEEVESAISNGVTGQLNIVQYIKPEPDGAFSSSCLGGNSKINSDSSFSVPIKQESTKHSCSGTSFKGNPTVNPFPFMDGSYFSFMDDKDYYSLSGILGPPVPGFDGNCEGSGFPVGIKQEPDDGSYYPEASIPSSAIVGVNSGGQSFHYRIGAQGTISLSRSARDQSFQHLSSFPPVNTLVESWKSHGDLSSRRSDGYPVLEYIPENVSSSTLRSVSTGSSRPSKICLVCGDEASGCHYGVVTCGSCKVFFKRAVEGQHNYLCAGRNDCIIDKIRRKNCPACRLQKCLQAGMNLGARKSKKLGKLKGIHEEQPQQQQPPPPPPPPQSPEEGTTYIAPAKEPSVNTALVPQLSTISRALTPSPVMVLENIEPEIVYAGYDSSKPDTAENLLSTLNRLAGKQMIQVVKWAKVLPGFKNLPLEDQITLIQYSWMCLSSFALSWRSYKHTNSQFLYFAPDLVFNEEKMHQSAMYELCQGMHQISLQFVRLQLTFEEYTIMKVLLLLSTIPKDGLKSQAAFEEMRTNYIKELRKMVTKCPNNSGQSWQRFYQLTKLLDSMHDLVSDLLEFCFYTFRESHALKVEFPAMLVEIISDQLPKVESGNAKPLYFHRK
Experiment: Mineralocorticoid Receptor Binding Assay ([3H]-aldosterone displacement)
Details: full length human MR expressed in Sf9 cells, 0.5 nM [3H]-aldosterone
Method in brief: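 Full-length human MR expressed in Sf9 cells; lysate (20-25 μg protein) incubated with 0.5 nM [3H]-aldosterone and test compound in molybdate/Tris/phosphate/glycerol buffer pH 7.5, 16 h at 4 °C. Bound ligand measured by filtration and scintillation counting; IC50 converted to Ki via Cheng-Prusoff.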

Q: Which Ki does the source give for `Cc1cc(C2(c3cc(C)c(O)c(C)c3)C(=O)N(c3cccc(Br)c3)c3ccccc32)cc(C)c1O` [Example 139, 1-(3-Bromo-phenyl)-3,3-bis-(4-hydroxy-3,5-dimethyl-phenyl)-1,3-dihydro-indol-2-one] here?
A: ≤ 500 nM
